US20260257992A1, “AGONISTS OF SMALL HETERODIMER PARTNER FOR CANCER THERAPY” (THE BOARD OF TRUSTEES OF THE UNIVERSITY OF ILLINOIS, priority 2023, published 2026)

Experiments:
[1] = target: T1, full length NR0B2 (Homo sapiens, UniProt Q15466); assay: Thermal shift assay with recombinant NR0B2; type: binding; conditions: 1 mM ligand, 6 μM purified NR0B2; apo/unliganded 46.74±0.22
T1 construct: A gene containing a hexa-His-TEV fusion with full length NR0B2 in pET21(a)+ was transformed in E. coli BL21(DE3); hexa-His with TEV site; made in house; host or cells: E. coli BL21(DE3)
T1 sequence (Q15466 1-257): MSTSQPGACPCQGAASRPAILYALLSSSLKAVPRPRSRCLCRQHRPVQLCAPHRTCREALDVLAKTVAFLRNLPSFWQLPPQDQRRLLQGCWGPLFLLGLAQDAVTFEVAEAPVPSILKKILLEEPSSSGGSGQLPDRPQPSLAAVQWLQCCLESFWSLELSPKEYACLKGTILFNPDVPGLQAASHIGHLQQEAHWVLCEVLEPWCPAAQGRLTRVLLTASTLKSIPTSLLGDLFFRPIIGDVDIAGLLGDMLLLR
Description: Protein expression, purification, and thermal shift assay. A gene containing a hexa-His-TEV fusion with full length NR0B2 in pET21(a)+ was transformed in E. coli BL21(DE3). A single colony was used to inoculate a 100 mL starter culture of LB broth containing 100 μg/mL ampicillin, which was allowed to grow overnight with shaking at 37° C. This starter culture was used to inoculate flasks containing autoinducing media, which were grown at 37° C. with shaking until they reached an OD^600 of 0.8. Subsequently, the temperature was reduced to 16° C. and cells were allowed to grow for another 24 hours. After harvesting by centrifugation, cells were resuspended at 15 mL/g cell paste in a buffer comprised of 25 mM HEPES pH 8.0, 250 mM NaCl, 20 mM imidazole pH 8.0, 5% glycerol, 0.5 mM TCEP, and Roche EDTA-free protease inhibitor cocktail. Cells were lysed by sonication then centrifuged at 18,000×g for 30 minutes to remove insoluble material. The lysate was loaded onto a gravity flow Ni-NTA column, washed with 5 column volumes (CVs) of resuspension buffer, and protein was eluted using the resuspension buffer supplemented with 500 mM imidazole. Collected protein was dialyzed overnight in the resuspension buffer without imidazole then concentrated and purified on a Superdex 200 HiLoad 200 16/600 size exclusion column. […]

[2] = system: 4T1 metastatic lesions; assay: Outgrowth of established 4T1 lung metastatic lesions (intravenous graft); type: in vivo, mouse; conditions: for Outgrowth of 4T1 metastatic lesions, combined with αPDL1: compound combined with αPDL1; for Outgrowth of established 4T1 metastatic lesions, single agent: lesions established 3 d before treatment
From the text: FIG. 3A-3F. DSHN, a tool small molecule agonist of NR0B2 reduces macrophage/dendritic cell induced Treg expansion and tumor growth in murine models. […] (B) Dendritic cells (left-CD11B^+; CD11C^+) and CD4^+ T cells (right) were isolated from MMTV-PyMT tumors by FACS, and treated with vehicle or DSHN for 3d. The resulting frequency of Treg (CD4^+; CD25^+; FoxP3^+) was quantified by flow cytometry (right graph), (N=3-5/group, t test). […] The percentage of divided CD8+ T cells in the second round was quantified. (D) DSHN increases efficacy of αPDL1 therapy on orthotopic E0771 tumors. An optimal number of E0771 cells were grafted into FoxP3-EGFP mice and allowed to grow until tumors reached 100 mm^3. Mice were euthanized on day 19 (waterfall plot, Fisher's exact test). (E) DSHN increases efficacy of αPDL1 therapy on orthotopic 4T1 tumors. 4T1 cells were orthotopically grafted into mice and allowed to establish for 5d prior to treatment start. Mice were euthanized on day 16 (waterfall plot, Fisher's exact test). (F) DSHN reduces metastatic outgrowth of 4T1 tumors and enhances efficacy of αPDL1 compared to placebo (p) (2-way ANOVA followed by Šidák's multiple comparison test for day 16). 4T1 cells were grafted intravenously, and lung metastatic lesions allowed to establish for 3d before treatment commenced. At the end of the study, lungs were removed and imaged ex vivo, quantified data indicated (N=10, 1-way ANOVA followed by Newman-Keuls multiple comparison test). Representative luciferase images shown to the right. * or different letters denote P<0.05 using indicated statistical test.
FIG. 7A-7I. DSHN-OMe reduces tumor and metastatic growth in murine models, in a myeloid cell-NR0B2 dependent manner. (A) E0771 cells were grafted into control mice (NR0B2^+/+; LysMCre^+) or mice where NR0B2 was knocked out in myeloid immune cells (NR0B2^fl/fl; LysMCre^+). 8 days post-graft, daily treatment with placebo or DSHN-OMe was initiated and subsequent tumor growth followed through time. Different letters denote statistical difference on the final measurement (day 21, 2-Way ANOVA followed by Šidák's post-hoc, N=5-8). (B) Waterfall plot illustration of data in (A) showing tumor volume at final day of measurement. Asterisk indicates significant difference (Chi-squared test, P<0.05). (C) Lewis Lung cells were grafted into control mice (NR0B2^+/+; LysMCre^+) or mice where NR0B2 was knocked out in myeloid immune cells (NR0B2^fl/fl; LysMCre^+). 10 days post-graft, daily treatment with placebo or DSHN-OMe was initiated and subsequent tumor growth followed through time. […] (G) EMT6 metastatic lungs were assessed for Ki67 mRNA and (H) FOXP3 mRNA. (I) EMT6 metastatic lungs were assessed for CD8+ cytotoxic T cells (CD8+). […]

Structure (SMILES)	NR0B2 thermal melt temperature (TM) [1]	Outgrowth of 4T1 metastatic lesions, combined with αPDL1 [2]	Outgrowth of established 4T1 metastatic lesions, single agent [2]
CCN(CC)S(=O)(=O)c1cccc2cc(C(=O)O)c(O)cc12 [DSHN, reference compound]	46.34±0.51 °C	reduced outgrowth even further than DSHN alone	slowed the growth of metastatic lesions
CCN(CC)S(=O)(=O)c1cccc2cc(C(=O)OC)c(O)cc12 [DSHN-OMe, Methyl 5-(N,N-diethylsulfamoyl)-3-hydroxy-2-naphthoate]	46.92±0.17 °C	did not significantly influence the effects of DSHN-OMe	significantly reduced the outgrowth of established 4T1 metastatic lesions
